In one data set the test system is HCMV. Kind of data set: Anti-HCMV cytopathogenicity test. The class given is cell-based, human cytomegalovirus. Particulars: for EC50: inhibition of CPE by 50% vs untreated virus control, HCMV-infected NHDF cells, M.O.I. 0.001-0.002, 6 days; for SI HCMV (selectivity index = CC50 (NHDF)/EC50 (HCMV)): ratio CC50 (NHDF)/EC50 (HCMV). On the procedure: Anti-HCMV (Anti-Human Cytomegalovirus) Cytopathogenicity Tests The test compounds are employed as 50 millimolar (mM) solutions in dimethyl sulfoxide (DMSO). Ganciclovir, foscamet and cidofovir are used as reference compounds. After addition of in each case 2 μl of the 50, 5, 0.5 and 0.05 mM DMSO stock solutions to 98 μl portions of cell culture medium in row […] for duplicate determinations, 1:2 dilutions are carried out with 50 μl portions of medium up to row 11 of the 96-well plate. The wells in rows 1 and 12 each contain 50 μl of medium. 150 μl of a suspension of 1×10^4 cells (human prepuce fibroblasts [NHDF]) are then pipetted into each of the wells (row 1=cell control) and, in rows 2-12, a mixture of HCMV-infected and uninfected NHDF cells (M.O.I.=0.001-0.002), i.e. 1-2 infected cells per 1000 uninfected cells. Row 12 (without substance) serves as virus control. The final test concentrations are 250-0.0005 μM. The plates are incubated at 37° C./5% CO2 for 6 days, i.e. until all the cells are infected in the virus controls (100% cytopathogenic effect [CPE]). The wells are then fixed and stained by adding a mixture of formalin and Giemsa's dye (30 minutes), washed with double-distilled water and dried in a drying oven at 50° C. The plates are then assessed visually using an overhead microscope (plaque multiplier from Technomara). The following data can be acquired from the test plates: EC50 (HCMV)=substance concentration in μM which inhibits the CPE (cytopathic effect) by 50% compared with the untreated virus control; SI (selectivity index)=CC50 (NHDF)/EC50 (HCMV).

Data set [1] is described as follows: Cytotoxicity on NHDF cells in the anti-HCMV cytopathogenicity test. The class given is cell-based. As to conditions: human, NHDF cells (human prepuce fibroblasts), 6 days incubation, visual assessment of cytotoxic effects vs untreated cell control. On the procedure: (§1) Anti-HCMV (Anti-Human Cytomegalovirus) Cytopathogenicity Tests The test compounds are employed as 50 millimolar (mM) solutions in dimethyl sulfoxide (DMSO). Ganciclovir, foscamet and cidofovir are used as reference compounds. After addition of in each case 2 μl of the 50, 5, 0.5 and 0.05 mM DMSO stock solutions to 98 μl portions of cell culture medium in row […] for duplicate determinations, 1:2 dilutions are carried out with 50 μl portions of medium up to row 11 of the 96-well plate. The wells in rows 1 and 12 each contain 50 μl of medium. 150 μl of a suspension of 1×10^4 cells (human prepuce fibroblasts [NHDF]) are then pipetted into each of the wells (row 1=cell control) and, in rows 2-12, a mixture of HCMV-infected and uninfected NHDF cells (M.O.I.=0.001-0.002), i.e. 1-2 infected cells per 1000 uninfected cells. Row 12 (without substance) serves as virus control. The final test concentrations are 250-0.0005 μM. The plates are incubated at 37° C./5% CO2 for 6 days, i.e. until all the cells are infected in the virus controls (100% cytopathogenic effect [CPE]). The wells are then fixed and stained by adding a mixture of formalin and Giemsa's dye (30 minutes), washed with double-distilled water and dried in a drying oven at 50° C. The plates are then assessed visually using an overhead microscope (plaque multiplier from Technomara). The following data can be acquired from the test plates: CC50 (NHDF)=substance concentration in […] at which no visible cytotoxic effects on the cells are evident by comparison with the untreated cell control;

Data set [2] concerns NHDF cells (human prepuce fibroblasts). The description is as above. The data set is classed as cell-based. As to conditions: 6 days incubation, visual assessment of cytotoxic effects vs untreated cell control. The protocol: as §1
The mark [3] stands for this setting: Human betaherpesvirus 5, NHDF, 144 h.

Consider `O=C(O)CC1c2cccc(F)c2N=C(c2ccc(-c3ccc(F)cc3)cc2)N1c1cccc(C(F)(F)F)c1` (racemic) [Example 1], for which a half-maximal response in the data set with HCMV (setting [3]) (EC50) required 0.1 µM. For the same compound, the “SI HCMV (selectivity index = CC50 (NHDF)/EC50 (HCMV))” value in the data set on HCMV turned out to be 150. Besides, it took 15 µM to reach half-maximal cytotoxicity in data set [1] (CC50 at 6 days).

In the case of `O=C(O)CC1c2cccc(F)c2N=C(c2ccc(-c3ccc(F)cc3)cc2)N1c1cccc(C(F)(F)F)c1` (racemic) [Example 2, {8-Fluoro-2-(4′-fluoro-1,1′-biphenyl-4-yl)-3-[3-(trifluoromethyl)phenyl]-3,4-dihydro-4-quinazolinyl}acetic acid], in the data set with HCMV, the midpoint of the response, the EC50, lay at 0.07 µM and the “SI HCMV (selectivity index = CC50 (NHDF)/EC50 (HCMV))” value was 171. Further, in data set [2], the CC50 – broadly, the concentration that lowers cell viability or growth by half – was determined as 12 µM.

With `Cc1cccc(-c2ccc(C3=Nc4c(F)cccc4C(CC(=O)O)N3c3cccc(C(F)(F)F)c3)cc2)c1` (racemic) [Example 3, {8-Fluoro-2-(3′-methyl-1,1′-biphenyl-4-yl)-3-[3-(trifluoromethyl)phenyl]-3,4-dihydro-4-quinazolinyl}acetic acid], in the data set with HCMV, the midpoint of the response, the EC50, lay at 0.13 µM and the “SI HCMV (selectivity index = CC50 (NHDF)/EC50 (HCMV))” value is given as 115. In data set [1], this compound showed a half-maximal cytotoxic concentration (CC50) at 6 days of 15 µM.

Regarding `Cc1cccc(-c2ccc(C3=Nc4c(F)cccc4C(CC(=O)O)N3c3cccc(C(F)(F)F)c3)cc2)c1` (racemic) [Example 4, {8-Fluoro-2-(3′-methyl-1,1′-biphenyl-4-yl)-3-[3-(trifluoromethyl)phenyl]-3,4-dihydro-4-quinazolinyl}acetic acid], in the data set on HCMV, the concentration giving a half-maximal response (EC50) (commonly the concentration giving half of the maximal effect) stood at 0.06 µM and the “SI HCMV (selectivity index = CC50 (NHDF)/EC50 (HCMV))” value was 143. In addition, it took 8.6 µM to reach half-maximal cytotoxicity in data set [2] (CC50).

In the data set on HCMV (setting [3]), `COc1ccc(C(F)(F)F)cc1N1C(c2ccc(-c3ccc(F)cc3)cc2)=Nc2c(F)cccc2C1CC(=O)O` (racemic) [Example 32, {2-[4-(4-Fluorophenyl)phenyl]-8-fluoro-3-[2-methoxy-5-(trifluoromethyl)phenyl]-3,4-dihydro-4-quinazolinyl}acetic acid] had an EC50 of 0.01 µM. Besides, the “SI HCMV (selectivity index = CC50 (NHDF)/EC50 (HCMV))” value in the data set on HCMV is 1500. The compound further registered a half-maximal cytotoxic concentration (CC50) at 6 days in data set [1] of 15 µM.

For the compound `COc1cccc(-c2ccc(C3=Nc4c(F)cccc4C(CC(=O)O)N3c3cc(C(F)(F)F)ccc3OC)cc2)c1` (racemic) [Example 36, {2-[4-(3-Methoxyphenyl)phenyl]-8-fluoro-3-[2-methoxy-5-(trifluoromethyl)phenyl]-3,4-dihydro-4-quinazolinyl}acetic acid], the EC50 with HCMV (setting [3]) came out at 0.01 µM. Besides, the “SI HCMV (selectivity index = CC50 (NHDF)/EC50 (HCMV))” value in the data set on HCMV worked out at 1500. The midpoint of cytotoxicity in data set [1], the CC50 at 6 days, lay at 15 µM.

In turn, `Cc1cc(-c2ccc(C3=Nc4c(F)cccc4C(CC(=O)O)N3c3cccc(C(F)(F)F)c3)cc2)ccc1F` (stereo not drawn) [Example 5, {8-Fluoro-2-(4′-fluoro-3′-methyl-1,1′-biphenyl-4-yl)-3-[3-(trifluoromethyl)phenyl]-3,4-dihydro-4-quinazolinyl}acetic acid] returned an EC50 with HCMV (setting [3]) of 0.74 µM. Also, the “SI HCMV (selectivity index = CC50 (NHDF)/EC50 (HCMV))” value in the data set with HCMV is recorded as 16. The compound further gave a CC50 at 6 days in data set [1] of 12 µM.

With `O=C(O)CC1c2cccc(F)c2N=C(c2ccc(-c3cccc(F)c3)cc2)N1c1cccc(C(F)(F)F)c1` (stereo not drawn) [Example 6, {8-Fluoro-2-(3′-fluoro-1,1′-biphenyl-4-yl)-3-[3-(trifluoromethyl)phenyl]-3,4-dihydro-4-quinazolinyl}acetic acid], the EC50 with HCMV (setting [3]) was determined as 0.35 µM. Further, in the data set on HCMV, the “SI HCMV (selectivity index = CC50 (NHDF)/EC50 (HCMV))” value stood at 34. Moreover, the CC50 at 6 days in data set [1] came to 12 µM.

For `O=C(O)CC1c2cccc(F)c2N=C(c2ccc(-c3ccc(F)cc3)cc2F)N1c1cccc(C(F)(F)F)c1` (stereo not drawn) [Example 7, {2-(3,4′-Difluoro-1,1′-biphenyl-4-yl)-8-fluoro-3-[3-(trifluoromethyl)phenyl]-3,4-dihydro-4-quinazolinyl}acetic acid], it took 1.8 µM to reach a half-maximal effect with HCMV (setting [3]) (EC50). Also, in the data set with HCMV, the “SI HCMV (selectivity index = CC50 (NHDF)/EC50 (HCMV))” value worked out at 17. The compound also returned a CC50 at 6 days in data set [1] of 31 µM.

These data come from patent US7709491B2, “Substituted quinazolines as antiviral agents, especially against cytomegaloviruses” (Bayer Schering Pharma Aktiengesellschaft, priority 2002, dated 2010).
